Key:
[1] = target: T1, phosphorylated EGFR (pEGFR) (Homo sapiens, UniProt P00533); assay: Detection of phosphorylated EGFR (pEGFR) in EGF-stimulated A431 cells (AlphaLISA); type: cell-based; conditions: A431 cells (10% FBS), 4 hours incubation, EGF 30 ng/mL for 10 minutes
T1 construct: performed to measure phosphorylated EGFR levels using A431 cells; endogenous in cells; host or cells: A431
How it was run: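 Cells in 10% FBS treated with compound 4 h at 37° C., then stimulated 10 min with 30 ng/mL EGF, lysed, and pEGFR measured by AlphaLISA. Inhibition normalized to DMSO and staurosporine controls; IC50 from four-parameter logistic fit.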

[2] = target: T2, phosphorylated ERBB2 (pERBB2) (Homo sapiens, UniProt P04626); assay: Detection of phosphorylated ERBB2 (pERBB2) by ELISA in BT-474 cells; type: cell-based; conditions: four hour incubation with compound
T2 construct: endogenous in cells; host or cells: BT-474
How it was run: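 BT-474 cells treated 4 h at 37 °C, 5% CO2 with four-fold dilutions (10 μM to 0.01 nM final). Lysates analysed by ELISA for pERBB2, TMB read at OD 450 nm. % relative activity normalised to no-cell (low) and 0.1% DMSO-treated (high) controls.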

[3] = target: Ba/F3 ERBB2 YVMA (Homo sapiens, UniProt P04626, DUP772-775, cells depend on it); assay: Cell viability assay (CellTiter Glo) in Ba/F3 cells engineered to express ERBB2 YVMA; type: cell-based, mouse; conditions: Ba/F3 cells expressing human ERBB2 YVMA mutant, 72 hours, % viability, read-out: Ba/F3 ERBB2 YVMA IC50
How it was run: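 IL-3-independent mouse Ba/F3 line stably transduced with human ERBB2 YVMA, seeded at 3000 cells/well, exposed to serially diluted compound (≤0.1% DMSO) for 72 h at 37° C. ATP read by CellTiter Glo luminescence, normalised to DMSO and media-only controls; sigmoidal nonlinear regression fit.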

Chain of Ba/F3 ERBB2 YVMA (P04626 with tags, fused parts or gaps DUP772-775): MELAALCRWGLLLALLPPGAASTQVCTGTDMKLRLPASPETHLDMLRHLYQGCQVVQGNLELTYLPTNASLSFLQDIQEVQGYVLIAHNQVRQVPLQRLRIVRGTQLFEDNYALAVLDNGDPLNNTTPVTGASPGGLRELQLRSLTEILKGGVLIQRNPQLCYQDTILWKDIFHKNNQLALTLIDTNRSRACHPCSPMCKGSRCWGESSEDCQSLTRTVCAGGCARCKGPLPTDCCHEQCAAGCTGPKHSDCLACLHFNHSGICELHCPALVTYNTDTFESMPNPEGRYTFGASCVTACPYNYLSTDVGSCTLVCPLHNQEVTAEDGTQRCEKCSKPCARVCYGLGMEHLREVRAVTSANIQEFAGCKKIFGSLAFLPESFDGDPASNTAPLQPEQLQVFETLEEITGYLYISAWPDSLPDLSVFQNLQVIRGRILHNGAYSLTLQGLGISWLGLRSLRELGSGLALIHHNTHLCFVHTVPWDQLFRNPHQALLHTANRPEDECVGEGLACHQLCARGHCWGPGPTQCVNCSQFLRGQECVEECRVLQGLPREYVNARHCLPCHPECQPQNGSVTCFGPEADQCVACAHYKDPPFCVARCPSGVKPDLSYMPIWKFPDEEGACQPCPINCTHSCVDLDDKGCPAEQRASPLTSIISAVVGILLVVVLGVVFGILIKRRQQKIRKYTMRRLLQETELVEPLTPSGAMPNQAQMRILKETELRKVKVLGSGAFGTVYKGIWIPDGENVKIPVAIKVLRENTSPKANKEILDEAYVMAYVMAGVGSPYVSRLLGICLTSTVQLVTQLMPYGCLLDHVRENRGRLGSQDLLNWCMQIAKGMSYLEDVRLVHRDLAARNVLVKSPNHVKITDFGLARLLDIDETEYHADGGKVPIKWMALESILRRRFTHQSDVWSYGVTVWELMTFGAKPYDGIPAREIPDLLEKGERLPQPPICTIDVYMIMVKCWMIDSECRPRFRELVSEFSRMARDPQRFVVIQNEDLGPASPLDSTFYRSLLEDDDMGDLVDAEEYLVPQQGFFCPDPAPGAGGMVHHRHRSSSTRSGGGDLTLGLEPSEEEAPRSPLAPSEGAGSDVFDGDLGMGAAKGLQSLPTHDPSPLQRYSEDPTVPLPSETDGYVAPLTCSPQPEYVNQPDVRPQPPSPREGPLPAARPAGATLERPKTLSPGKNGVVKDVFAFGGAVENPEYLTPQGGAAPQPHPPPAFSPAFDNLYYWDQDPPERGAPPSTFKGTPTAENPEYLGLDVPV
T1 sequence (P00533 25-1210): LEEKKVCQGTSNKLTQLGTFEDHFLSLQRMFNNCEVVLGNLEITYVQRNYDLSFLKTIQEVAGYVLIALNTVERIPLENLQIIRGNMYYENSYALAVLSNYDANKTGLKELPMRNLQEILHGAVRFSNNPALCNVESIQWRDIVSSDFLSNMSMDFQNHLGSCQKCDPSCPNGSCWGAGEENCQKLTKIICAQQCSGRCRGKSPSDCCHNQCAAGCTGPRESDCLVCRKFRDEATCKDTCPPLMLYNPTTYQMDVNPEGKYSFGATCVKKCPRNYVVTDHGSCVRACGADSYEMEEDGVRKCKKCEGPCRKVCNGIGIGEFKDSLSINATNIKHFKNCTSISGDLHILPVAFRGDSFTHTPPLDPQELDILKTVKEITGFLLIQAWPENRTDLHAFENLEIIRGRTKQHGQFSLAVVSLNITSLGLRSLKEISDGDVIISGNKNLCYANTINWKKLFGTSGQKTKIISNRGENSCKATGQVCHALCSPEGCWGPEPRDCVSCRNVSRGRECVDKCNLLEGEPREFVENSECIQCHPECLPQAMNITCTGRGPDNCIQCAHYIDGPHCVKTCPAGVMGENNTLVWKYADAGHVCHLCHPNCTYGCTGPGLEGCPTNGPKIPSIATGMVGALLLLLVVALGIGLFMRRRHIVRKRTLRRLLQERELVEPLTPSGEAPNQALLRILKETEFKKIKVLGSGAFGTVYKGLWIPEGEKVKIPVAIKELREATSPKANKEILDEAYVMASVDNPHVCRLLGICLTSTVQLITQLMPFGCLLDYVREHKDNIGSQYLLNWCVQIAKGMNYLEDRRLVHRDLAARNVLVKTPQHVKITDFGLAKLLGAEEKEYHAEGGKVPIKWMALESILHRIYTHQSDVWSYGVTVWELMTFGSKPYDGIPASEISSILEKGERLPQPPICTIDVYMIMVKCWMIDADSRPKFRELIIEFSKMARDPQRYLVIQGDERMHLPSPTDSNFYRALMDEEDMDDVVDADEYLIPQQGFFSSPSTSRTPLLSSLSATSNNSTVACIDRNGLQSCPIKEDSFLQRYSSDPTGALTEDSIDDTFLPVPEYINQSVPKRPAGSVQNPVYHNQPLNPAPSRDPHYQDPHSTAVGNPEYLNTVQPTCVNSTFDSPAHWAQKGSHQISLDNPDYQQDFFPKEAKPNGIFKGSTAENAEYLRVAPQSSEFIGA
T2 sequence (P04626 23-1255): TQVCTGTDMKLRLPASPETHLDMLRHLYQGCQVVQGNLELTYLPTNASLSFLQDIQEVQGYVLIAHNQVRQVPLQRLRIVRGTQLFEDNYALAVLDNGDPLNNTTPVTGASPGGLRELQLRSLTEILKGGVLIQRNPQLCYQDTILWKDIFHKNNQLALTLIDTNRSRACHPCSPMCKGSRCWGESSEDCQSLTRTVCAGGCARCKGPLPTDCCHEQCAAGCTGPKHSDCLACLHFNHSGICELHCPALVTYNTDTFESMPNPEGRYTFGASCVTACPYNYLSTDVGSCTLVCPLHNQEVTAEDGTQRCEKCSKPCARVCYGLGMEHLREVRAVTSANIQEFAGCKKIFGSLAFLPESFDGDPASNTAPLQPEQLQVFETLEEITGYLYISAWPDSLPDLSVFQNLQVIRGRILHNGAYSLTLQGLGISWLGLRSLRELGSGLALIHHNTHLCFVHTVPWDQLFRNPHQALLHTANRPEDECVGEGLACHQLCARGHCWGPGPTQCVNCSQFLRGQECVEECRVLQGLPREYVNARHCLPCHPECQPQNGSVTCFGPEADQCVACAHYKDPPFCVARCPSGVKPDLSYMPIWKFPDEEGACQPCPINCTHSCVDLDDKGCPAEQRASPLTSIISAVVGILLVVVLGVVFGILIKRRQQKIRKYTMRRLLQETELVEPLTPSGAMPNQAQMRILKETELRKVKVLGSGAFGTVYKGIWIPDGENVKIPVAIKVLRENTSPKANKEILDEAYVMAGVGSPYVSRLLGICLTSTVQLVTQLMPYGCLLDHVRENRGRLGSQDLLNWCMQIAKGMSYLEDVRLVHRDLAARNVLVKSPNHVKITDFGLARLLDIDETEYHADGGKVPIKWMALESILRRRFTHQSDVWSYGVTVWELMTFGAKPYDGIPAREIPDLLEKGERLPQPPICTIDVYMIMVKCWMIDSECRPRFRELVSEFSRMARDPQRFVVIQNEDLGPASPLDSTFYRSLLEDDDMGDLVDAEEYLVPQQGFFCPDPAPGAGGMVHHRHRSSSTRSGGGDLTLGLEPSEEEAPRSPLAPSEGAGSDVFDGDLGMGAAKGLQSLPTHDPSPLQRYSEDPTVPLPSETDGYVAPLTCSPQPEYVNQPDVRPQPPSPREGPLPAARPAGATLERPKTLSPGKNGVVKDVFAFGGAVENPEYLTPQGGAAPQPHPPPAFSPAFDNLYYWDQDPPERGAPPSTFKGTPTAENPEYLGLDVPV

Row | IC50 [1] | IC50 [2] | Structure (SMILES) | GI50 [3]
1 | > 10000 nM | 95.9 nM | C=CC(=O)N1CCN(c2ccc3ncnc(Nc4ccc(Cc5ccc6c(c5)ncn6C)c(C)c4)c3c2)[C@@H](C)C1 [Compound 125, (S)-1-(3-methyl-4-(4-((3-methyl-4-((1-methyl-1H-benzo[d]imidazol-5-yl)methyl)phenyl)amino)quinazolin-6-yl)piperazin-1-yl)prop-2-en-1-one] | 61.2 nM
2 | > 10000 nM | 145 nM | Cc1cc(Nc2ncnc3ccc(N4CCN(C(=O)/C=C/CN(C)C)C[C@@H]4C)nc23)ccc1Cc1ccc2c(c1)ncn2C [Compound 126, (S,E)-4-(dimethylamino)-1-(3-methyl-4-(4-((3-methyl-4-((1-methyl-1H-benzo[d]imidazol-5-yl)methyl)phenyl)amino)pyrido[3,2-d]pyrimidin-6-yl)piperazin-1-yl)but-2-en-1-one] | 29.6 nM
3 | 1480 nM | 13 nM | C=CC(=O)N1CCN(c2ncc3ncnc(Nc4ccc(Oc5ccc6c(c5)ncn6C)c(C)c4)c3n2)CC1 [Compound 130, 1-(4-(8-((3-methyl-4-((1-methyl-1H-benzo[d]imidazol-5-yl)oxy)phenyl)amino)pyrimido[5,4-d]pyrimidin-2-yl)piperazin-1-yl)prop-2-en-1-one] | 15 nM
4 | 2390 nM | 30 nM | C=CC(=O)N1CCN(c2ccc3ncnc(Nc4ccc(Cc5ccn6ncnc6c5)c(C)c4)c3n2)CC1(C)C [Compound 131, 1-(4-(4-((4-([1,2,4]triazolo[1,5-a]pyridin-7-ylmethyl)-3-methylphenyl)amino)pyrido[3,2-d]pyrimidin-6-yl)-2,2-dimethylpiperazin-1-yl)prop-2-en-1-one] | 20 nM

The remaining lines, values behind:

Row | Structure (SMILES) | IC50 [1] | IC50 [2] | GI50 [3]
5 | C=CC(=O)N1C2CCC1CN(c1ccc3ncnc(Nc4ccc(Cc5ccn6ncnc6c5)c(C)c4)c3n1)C2 [Compound 127, 1-(3-(4-((4-([1,2,4]triazolo[1,5-a]pyridin-7-ylmethyl)-3-methylphenyl)amino)pyrido[3,2-d]pyrimidin-6-yl)-3,8-diazabicyclo[3.2.1]octan-8-yl)prop-2-en-1-one] | 2150 nM | 17.5 nM | 4.37 nM
6 | C=CC(=O)N1CC2CC1CN2c1ccc2ncnc(Nc3ccc(Cc4ccn5ncnc5c4)c(C)c3)c2n1 (stereo not drawn) [Compound 128, 1-(5-(4-((4-([1,2,4]triazolo[1,5-a]pyridin-7-ylmethyl)-3-methylphenyl)amino)pyrido[3,2-d]pyrimidin-6-yl)-2,5-diazabicyclo[2.2.1]heptan-2-yl)prop-2-en-1-one] | 530 nM | 19.8 nM | 7.45 nM
7 | C=CC(=O)N1CCN(c2ccc3ncnc(Nc4ccc(Cc5ccn6ncnc6c5)c(C)c4)c3n2)CC12CC2 [Compound 129, 1-(7-{4-[(3-methyl-4-{[1,2,4]triazolo[1,5-a]pyridin-7-ylmethyl}phenyl)amino]pyrido[3,2-d]pyrimidin-6-yl}-4,7-diazaspiro[2.5]octan-4-yl)prop-2-en-1-one] | 317 nM | 21.5 nM | 5.32 nM

Reference: patent publication US20250136595A1, “ACYLATED HETEROCYCLIC QUINAZOLINE DERIVATIVES AS INHIBITORS OF ERBB2” (Enliven Inc., priority 2022, published 2025)
